What follows are compounds tested on MV4-11 cells (assay: MV4-11 Cytotoxicity Assay). Conditions: 72 hr, CCK-8; read-out: MV4-11 cytotoxicity.
Format: cell-based, human

Row | Compound | IC50 [µM]
1 | CC[C@@H](C)Nc1cc(C(=O)NC2C[C@H]3CC[C@H](C2)N3c2ccc(C(=O)c3ccc(CN4CCN(CC5CCN(C(=O)C[C@@H]6N=C(c7ccc(Cl)cc7)c7c(sc(C)c7C)-n7c(C)nnc76)CC5)CC4)cc3)cn2)c(C)cc1C(N)=O (stereo partly drawn) [Compound 25] | 0.1 to 1

Same assay, conditions: Homo sapiens, MV4-11; 72 hr, CCK-8; read-out: MV4-11 cytotoxicity

Row | Compound | IC50 [µM]
2 | Cc1sc2c(c1C)C(c1ccc(Cl)cc1)=N[C@@H](CC(=O)NCc1ccc(-n3c(S)nnc3-c3cc(C(C)C)c(O)cc3O)cc1)c1nnc(C)n1-2 [Compound 28, (S)-2-(4-(4-chlorophenyl)-2,3,9-trimethyl-6H-thieno[3,2-f][1,2,4]triazolo[4,3-a][1,4]diazepin-6-yl)-N-(4-(3-(2,4-dihydroxy-5-isopropylphenyl)-5-mercapto-4H-1,2,4-triazol-4-yl)benzyl)acetamide] | 0.1 to 1
3 | Cc1sc2c(c1C)C(c1ccc(Cl)cc1)=N[C@@H](CC(=O)N1CCN(C(=O)C3CCN(c4ccc(-n5c(O)nnc5-c5cc(C(C)C)c(O)cc5O)cc4)CC3)CC1)c1nnc(C)n1-2 [Compound 29, (S)-2-(4-(4-chlorophenyl)-2,3,9-trimethyl-6H-thieno[3,2-f][1,2,4]triazolo[4,3-a][1,4]diazepin-6-yl)-1-(4-(1-(4-(3-(2,4-dihydroxy-5-isopropylphenyl)-5-hydroxy-4H-1,2,4-triazol-4-yl)phenyl)piperidine-4-carbonyl)piperazin-1-yl)ethan-1-one] | 0.1 to 1
4 | Cc1sc2c(c1C)C(c1ccc(Cl)cc1)=N[C@@H](CC(=O)NCCOc1ccc(-n3c(S)nnc3-c3cc(C(C)C)c(O)cc3O)cc1)c1nnc(C)n1-2 [Compound 32, (S)-2-(4-(4-chlorophenyl)-2,3,9-trimethyl-6H-thieno[3,2-f][1,2,4]triazolo[4,3-a][1,4]diazepin-6-yl)-N-(2-(4-(3-(2,4-dihydroxy-5-isopropylphenyl)-5-mercapto-4H-1,2,4-triazol-4-yl)phenoxy)ethyl)acetamide] | 0.1 to 1
5 | Cc1sc2c(c1C)C(c1ccc(Cl)cc1)=N[C@@H](CC(=O)NCCOCCOc1ccc(-n3c(S)nnc3-c3cc(C(C)C)c(O)cc3O)cc1)c1nnc(C)n1-2 [Compound 33, (S)-2-(4-(4-chlorophenyl)-2,3,9-trimethyl-6H-thieno[3,2-f][1,2,4]triazolo[4,3-a][1,4]diazepin-6-yl)-N-(2-(2-(4-(3-(2,4-dihydroxy-5-isopropylphenyl)-5-mercapto-4H-1,2,4-triazol-4-yl)phenoxy)ethoxy)ethyl)acetamide] | 0.1 to 1
6 | Cc1sc2c(c1C)C(c1ccc(Cl)cc1)=N[C@@H](CC(=O)NCCOCCOCCOc1ccc(-n3c(S)nnc3-c3cc(C(C)C)c(O)cc3O)cc1)c1nnc(C)n1-2 [Compound 34, (S)-2-(4-(4-chlorophenyl)-2,3,9-trimethyl-6H-thieno[3,2-f][1,2,4]triazolo[4,3-a][1,4]diazepin-6-yl)-N-(2-(2-(2-(4-(3-(2,4-dihydroxy-5-isopropylphenyl)-5-mercapto-4H-1,2,4-triazol-4-yl)phenoxy)ethoxy)ethoxy)ethyl)acetamide] | 0.1 to 1
7 | Cc1sc2c(c1C)C(c1ccc(Cl)cc1)=N[C@@H](CC(=O)NCCOCCN1CCC(Cc3ccc(-n4c(O)nnc4-c4cc(C(C)C)c(O)cc4O)cc3)CC1)c1nnc(C)n1-2 [Compound 37, 2-((6S)-4-(4-chlorophenyl)-2,3,9-trimethyl-6H-thieno[3,2-f][1,2,4]triazolo[4,3-a][1,4]diazepin-6-yl)-N-(2-(2-(4-(4-(3-(2,4-dihydroxy-5-isopropylphenyl)-5-hydroxy-4H-1,2,4-triazol-4-yl)benzyl)piperidin-1-yl)ethoxy)ethyl)acetamide, trifluoroacetic acid] | 0.1 to 1
8 | Cc1sc2c(c1C)C(c1ccc(Cl)cc1)=N[C@@H](CC(=O)N1CCN(Cc3ccc(-n4c(O)nnc4-c4cc(C(C)C)c(O)cc4O)cc3)CC1)c1nnc(C)n1-2 [Compound 38, 2-((6S)-4-(4-chlorophenyl)-2,3,9-trimethyl-6H-thieno[3,2-f][1,2,4]triazolo[4,3-a][1,4]diazepin-6-yl)-1-(4-(4-(3-(2,4-dihydroxy-5-isopropylphenyl)-5-hydroxy-4H-1,2,4-triazol-4-yl)benzyl)piperazin-1-yl)ethanone, trifluoroacetic acid] | < 0.1
9 | Cc1sc2c(c1C)C(c1ccc(Cl)cc1)=N[C@@H](CC(=O)N1CCC(CN3CCN(c4ccc(-n5c(O)nnc5-c5cc(C(C)C)c(O)cc5O)cc4)CC3)CC1)c1nnc(C)n1-2 [Compound 41, (S)-2-(4-(4-chlorophenyl)-2,3,9-trimethyl-6H-thieno[3,2-f][1,2,4]triazolo[4,3-a][1,4]diazepin-6-yl)-1-(4-((4-(4-(3-(2,4-dihydroxy-5-isopropylphenyl)-5-hydroxy-4H-1,2,4-triazol-4-yl)phenyl)piperazin-1-yl)methyl)piperidin-1-yl)ethanone] | < 0.1
10 | Cc1sc2c(c1C)C(c1ccc(Cl)cc1)=N[C@@H](CC(=O)N1CCC(N3CCN(Cc4ccc(-n5c(O)nnc5-c5cc(C(C)C)c(O)cc5O)cc4)CC3)CC1)c1nnc(C)n1-2 [Compound 42, (S)-2-(4-(4-chlorophenyl)-2,3,9-trimethyl-6H-thieno[3,2-f][1,2,4]triazolo[4,3-a][1,4]diazepin-6-yl)-1-(4-(4-(4-(3-(2,4-dihydroxy-5-isopropylphenyl)-5-hydroxy-4H-1,2,4-triazol-4-yl)benzyl)piperazin-1-yl)piperidin-1-yl)ethan-1-one, trifluoroacetic acid] | < 0.1
11 | Cc1sc2c(c1C)C(c1ccc(Cl)cc1)=N[C@@H](CC(=O)N1CCC(N3CCN(c4ccc(-n5c(O)nnc5-c5cc(C(C)C)c(O)cc5O)cc4)CC3)CC1)c1nnc(C)n1-2 [Compound 43, 2-((6S)-4-(4-chlorophenyl)-2,3,9-trimethyl-6H-thieno[3,2-f][1,2,4]triazolo[4,3-a][1,4]diazepin-6-yl)-1-(4-(4-(4-(3-(2,4-dihydroxy-5-isopropylphenyl)-5-hydroxy-4H-1,2,4-triazol-4-yl)phenyl)piperazin-1-yl)piperidin-1-yl)ethanone, trifluoroacetic acid] | < 0.1
12 | Cc1sc2c(c1C)C(c1ccc(Cl)cc1)=N[C@@H](CC(=O)NCC1CCN(C(=O)C3CCN(Cc4ccc(-n5c(O)nnc5-c5cc(C(C)C)c(O)cc5O)cc4)CC3)C1)c1nnc(C)n1-2 (stereo partly drawn) [Compound 45, 2-((S)-4-(4-chlorophenyl)-2,3,9-trimethyl-6H-thieno[3,2-f][1,2,4]triazolo[4,3-a][1,4]diazepin-6-yl)-N-((1-(1-(4-(3-(2,4-dihydroxy-5-isopropylphenyl)-5-hydroxy-4H-1,2,4-triazol-4-yl)benzyl)piperidine-4-carbonyl)pyrrolidin-3-yl)methyl)acetamide, trifluoroacetic acid] | < 0.1
13 | Cc1sc2c(c1C)C(c1ccc(Cl)cc1)=N[C@@H](CC(=O)NCC(=O)NCCOc1ccc(-n3c(S)nnc3-c3cc(C(C)C)c(O)cc3O)cc1)c1nnc(C)n1-2 [Compound 48, (S)-2-(4-(4-chlorophenyl)-2,3,9-trimethyl-6H-thieno[3,2-f][1,2,4]triazolo[4,3-a][1,4]diazepin-6-yl)-N-(2-((2-(4-(3-(2,4-dihydroxy-5-isopropylphenyl)-5-mercapto-4H-1,2,4-triazol-4-yl)phenoxy)ethyl)amino)-2-oxoethyl)acetamide] | 0.1 to 1
14 | Cc1sc2c(c1C)C(c1ccc(Cl)cc1)=N[C@@H](CC(=O)NCCOCCN1CCN(Cc3ccc(-n4c(O)nnc4-c4cc(C(C)C)c(O)cc4O)cc3)CC1)c1nnc(C)n1-2 [Compound 49, 2-((6S)-4-(4-chlorophenyl)-2,3,9-trimethyl-6H-thieno[3,2-f][1,2,4]triazolo[4,3-a][1,4]diazepin-6-yl)-N-(2-(2-(4-(4-(3-(2,4-dihydroxy-5-isopropylphenyl)-5-hydroxy-4H-1,2,4-triazol-4-yl)benzyl)piperazin-1-yl)ethoxy)ethyl)acetamide, trifluoroacetic acid, trifluoroacetic acid, trifluoroacetic acid, trifluoroacetic …] | < 0.1
15 | Cc1sc2c(c1C)C(c1ccc(Cl)cc1)=N[C@@H](CC(=O)NCCOc1cccc(CN(C)Cc3ccc(-n4c(O)nnc4-c4cc(C(C)C)c(O)cc4O)cc3)c1)c1nnc(C)n1-2 [Compound 50, 2-((6S)-4-(4-chlorophenyl)-2,3,9-trimethyl-6H-thieno[3,2-f][1,2,4]triazolo[4,3-a][1,4]diazepin-6-yl)-N-(2-(3-(((4-(3-(2,4-dihydroxy-5-isopropylphenyl)-5-hydroxy-4H-1,2,4-triazol-4-yl)benzyl)(methyl)amino)methyl)phenoxy)ethyl)acetamide, trifluoroacetic acid, trifluoroacetic acid, trifluoroacetic acid, trifluoroacetic …] | < 0.1
16 | Cc1sc2c(c1C)C(c1ccc(Cl)cc1)=N[C@@H](CC(=O)NCCOCc1ccc(-n3c(O)nnc3-c3cc(C(C)C)c(O)cc3O)cc1)c1nnc(C)n1-2 [Compound 52, 2-((6S)-4-(4-chlorophenyl)-2,3,9-trimethyl-6H-thieno[3,2-f][1,2,4]triazolo[4,3-a][1,4]diazepin-6-yl)-N-(2-((4-(3-(2,4-dihydroxy-5-isopropylphenyl)-5-hydroxy-4H-1,2,4-triazol-4-yl)benzyl)oxy)ethyl)acetamide] | 0.1 to 1
17 | Cc1sc2c(c1C)C(c1ccc(Cl)cc1)=N[C@@H](CC(=O)NCC1CCN(C(=O)C3CCN(Cc4ccc(-n5c(O)nnc5-c5cc(C(C)C)c(O)cc5O)cc4)CC3)CC1)c1nnc(C)n1-2 [Compound 53, (S)-2-(4-(4-chlorophenyl)-2,3,9-trimethyl-6H-thieno[3,2-f][1,2,4]triazolo[4,3-a][1,4]diazepin-6-yl)-N-((1-(1-(4-(3-(2,4-dihydroxy-5-isopropylphenyl)-5-hydroxy-4H-1,2,4-triazol-4-yl)benzyl)piperidine-4-carbonyl)piperidin-4-yl)methyl)acetamide, trifluoroacetic acid] | < 0.1
18 | Cc1sc2c(c1C)C(c1ccc(Cl)cc1)=N[C@@H](CC(=O)NCC(=O)NCCOc1ccc(-n3c(O)nnc3-c3cc(C(C)C)c(O)cc3O)cc1)c1nnc(C)n1-2 [Compound 54, (S)-2-(4-(4-chlorophenyl)-2,3,9-trimethyl-6H-thieno[3,2-f][1,2,4]triazolo[4,3-a][1,4]diazepin-6-yl)-N-(2-((2-(4-(3-(2,4-dihydroxy-5-isopropylphenyl)-5-hydroxy-4H-1,2,4-triazol-4-yl)phenoxy)ethyl)amino)-2-oxoethyl)acetamide] | 0.1 to 1

From US12540143B2, “Methods and compositions for targeted protein degradation” (Ranok Therapeutics (Hangzhou) Co. Ltd., priority 2019, dated 2026)
